Results taken from paper PMC7941592 (Journal of natural products, 2021).
Where a SMILES comes first, the peptide text is derived from it. [ ]: non-standard residue; d: D form. The star is where a group is joined. X1 = CC(C)C[C@@H](C[N+]1=C2CCCN2CCC1)N*; dIva = CC[C@@](C)(N)C(=O)O; Pip = O=C(O)[C@@H]1CCCCN1; Aib = CC(C)(N)C(=O)O; βAla = NCCC(=O)O

How the values were obtained:
P. falciparum = conditions: read-out: EC50 against P. falciparum; cited from earlier work
[1] = system: multi-drug-resistant P. falciparum line Dd2; type: cell-based, Plasmodium falciparum

SMILES | EC50 (P. falciparum) [µM] | antiplasmodial activity in words [1]
CC[C@H](C)[C@@H](C(=O)O[C@@H](CC(C)C)C(=O)N[C@@H](CC(C)C)C(=O)N[C@@H](C)/C=C/C(=O)N1C(=O)C=C(OC)[C@@H]1C)N(C)C [Gallinamide A] | 8.4 | –
CC[C@@](C)(NC(=O)[C@H](CC(C)C)NC(=O)[C@H](C)NC(=O)C(C)(C)NC(=O)[C@@H]1CCCCN1C(=O)C(C)(C)NC(=O)C(C)(C)NC(=O)CNC(=O)CCNC(=O)[C@H](CC(C)C)NC(=O)C(C)(C)NC(=O)C(C)(C)NC(=O)[C@@H]1CCCCN1C(=O)C(C)(C)NC(=O)[C@@H]1CCCCN1C(C)=O)C(=O)N[C@@H](CC(C)C)C[N+]1=C2CCCN2CCC1 [efrapeptin F (53), efrapeptin F] (Ac-[Pip][Aib][Pip][Aib][Aib]L[βAla]G[Aib][Aib][Pip][Aib]AL[dIva]-X1; N-terminus and C-terminus assumed) | – | submicromolar
